In patent publication US20260137642A1 (CANCER PREVENTION PHARMACEUTICALS, INC., priority 2021, published 2026):

Assay: Phase I/II trial in new onset T1D: adverse events judged possibly or probably related to drug
Format: in vivo, human
Conditions: daily oral; for Adverse events possibly or probably related to drug: Hematologic, Grade 1 Neutropenia: neutrophil count < lower limit of normal but above 1500/mm^3
Source text: The primary efficacy measure was changes in pro-insulin to C-peptide ratios as a marker of β cell ER stress. The secondary objectives of the study were to elucidate the relationship between primary dose and markers of endoplasmic reticulum (ER) stress, polyamine concentrations, glycemic, and immunologic outcomes in persons with new onset T1D, and to characterize the dietary polyamine intake and urinary polyamine excretion of persons with recent-onset T1D. Secondary efficacy measures included other biomarkers of β cell stress, stimulated C-peptide values, and changes in T-cell subsets. This study was double-blind, placebo-controlled, 2:1 random assigned, phase I/II clinic trial for individuals with type 1 diabetes. The blinded dose-ranging study enrolled persons with new onset T1D with documented continued residual C-peptide production. […] After a 3 month wash-out period, the durability of effect was assessed. […] Males and females 12-40 years of age with a clinical diagnosis of T1D within 2-8 months of the time of visit 2; 2. […] Positive for any one of the following diabetes-related autoantibodies (mIAA, GADA, IA-2A, or ZnT8A); 4. Treatment naïve of any immunomodulatory agent; 5. […] Presence of any psychiatric disorder that will affect ability to participate in study, including psychiatric impairment or current use of anti-psychotic medication; 3. […] Chronic illness known to affect glucose metabolism (e.g. Cushing syndrome, polycystic ovarian disorder, cystic fibrosis) or taking medications that affect glucose metabolism (e.g. steroids, metformin); 5. Inability to swallow pills; 6. Hematologic abnormalities at screening (anemia, leukopenia (particularly neutropenia), or thrombocytopenia); 7. […] Female participants of child-bearing age must not be pregnant and agree to use an effective form of birth control or be abstinent during the study period; 9. BMI >95% for age and sex. […] The enrollment cohorts were as follows: […] [table] […] Possible drug-related expected AEs included mild-moderate nausea/vomiting/abdominal pain and diarrhea, moderate headache, upper respiratory infections, a pump site infection, and mild anemia. […] Adverse events judges by masked study investigators as possibly or probably related to drug are showing in Table 3.

NCCCC(N)(C(=O)O)C(F)F (stereo not drawn) [eflornithine, 2,5-diamino-2-(difluoromethyl) pentanoic acid]
Adverse events possibly or probably related to drug: Abdominal Pain (125 mg/m^2 (n = 6)): 1 | Adverse events possibly or probably related to drug: Congestion (125 mg/m^2 (n = 6)): 0 | Adverse events possibly or probably related to drug: Cough (125 mg/m^2 (n = 6)): 0 | Adverse events possibly or probably related to drug: Diarrhea (125 mg/m^2 (n = 6)): 0 | Adverse events possibly or probably related to drug: Dizziness (125 mg/m^2 (n = 6)): 0 | Adverse events possibly or probably related to drug: Gastrointestinal (Total) (125 mg/m^2 (n = 6)): 1 | Adverse events possibly or probably related to drug: Hematologic, Anemia (125 mg/m^2 (n = 6)): 0 | Adverse events possibly or probably related to drug: Hot flashes associated with viral illness (125 mg/m^2 (n = 6)): 0 | Adverse events possibly or probably related to drug: Nausea (125 mg/m^2 (n = 6)): 0 | Adverse events possibly or probably related to drug: Nausea with IV placement (125 mg/m^2 (n = 6)): 0 | Adverse events possibly or probably related to drug: Neurologic, Headache (125 mg/m^2 (n = 6)): 1 | Adverse events possibly or probably related to drug: Other Viral Illness (125 mg/m^2 (n = 6)): 0 | Adverse events possibly or probably related to drug: Other infectious/immune, Pump site infection (125 mg/m^2 (n = 6)): 0 | Adverse events possibly or probably related to drug: Other, Hypoglycemia (125 mg/m^2 (n = 6)): 0 | Adverse events possibly or probably related to drug: Other, Urticaria/anaphylaxis (125 mg/m^2 (n = 6)): 0 | Adverse events possibly or probably related to drug: URI (125 mg/m^2 (n = 6)): 0 | Adverse events possibly or probably related to drug: Vomiting (125 mg/m^2 (n = 6)): 1 | Adverse events possibly or probably related to drug: Hematologic, Grade 1 Neutropenia (125 mg/m^2 (n = 6)): 1 | Adverse events possibly or probably related to drug: Abdominal Pain (250 mg/m^2 (n = 6)): 0 | Adverse events possibly or probably related to drug: Congestion (250 mg/m^2 (n = 6)): 0 | Adverse events possibly or probably related to drug: Cough (250 mg/m^2 (n = 6)): 0 | Adverse events possibly or probably related to drug: Diarrhea (250 mg/m^2 (n = 6)): 1 | Adverse events possibly or probably related to drug: Dizziness (250 mg/m^2 (n = 6)): 0 | Adverse events possibly or probably related to drug: Gastrointestinal (Total) (250 mg/m^2 (n = 6)): 1 | Adverse events possibly or probably related to drug: Hematologic, Anemia (250 mg/m^2 (n = 6)): 0 | Adverse events possibly or probably related to drug: Hot flashes associated with viral illness (250 mg/m^2 (n = 6)): 0 | Adverse events possibly or probably related to drug: Nausea (250 mg/m^2 (n = 6)): 0 | Adverse events possibly or probably related to drug: Nausea with IV placement (250 mg/m^2 (n = 6)): 0 | Adverse events possibly or probably related to drug: Neurologic, Headache (250 mg/m^2 (n = 6)): 0 | Adverse events possibly or probably related to drug: Other Viral Illness (250 mg/m^2 (n = 6)): 0 | Adverse events possibly or probably related to drug: Other infectious/immune, Pump site infection (250 mg/m^2 (n = 6)): 0 | Adverse events possibly or probably related to drug: Other, Hypoglycemia (250 mg/m^2 (n = 6)): 0 | Adverse events possibly or probably related to drug: Other, Urticaria/anaphylaxis (250 mg/m^2 (n = 6)): 0 | Adverse events possibly or probably related to drug: URI (250 mg/m^2 (n = 6)): 0 | Adverse events possibly or probably related to drug: Vomiting (250 mg/m^2 (n = 6)): 0 | Adverse events possibly or probably related to drug: Hematologic, Grade 1 Neutropenia (250 mg/m^2 (n = 6)): 0 | Adverse events possibly or probably related to drug: Abdominal Pain (500 mg/m^2 (n = 6)): 0 | Adverse events possibly or probably related to drug: Congestion (500 mg/m^2 (n = 6)): 0 | Adverse events possibly or probably related to drug: Cough (500 mg/m^2 (n = 6)): 0 | Adverse events possibly or probably related to drug: Diarrhea (500 mg/m^2 (n = 6)): 0 | Adverse events possibly or probably related to drug: Dizziness (500 mg/m^2 (n = 6)): 0 | Adverse events possibly or probably related to drug: Gastrointestinal (Total) (500 mg/m^2 (n = 6)): 0 | Adverse events possibly or probably related to drug: Hematologic, Anemia (500 mg/m^2 (n = 6)): 0 | Adverse events possibly or probably related to drug: Hot flashes associated with viral illness (500 mg/m^2 (n = 6)): 0 | Adverse events possibly or probably related to drug: Nausea (500 mg/m^2 (n = 6)): 0 | Adverse events possibly or probably related to drug: Nausea with IV placement (500 mg/m^2 (n = 6)): 0 | Adverse events possibly or probably related to drug: Neurologic, Headache (500 mg/m^2 (n = 6)): 0 | Adverse events possibly or probably related to drug: Other Viral Illness (500 mg/m^2 (n = 6)): 0
